# Data from patent US8680012B2, “4-phenyl-pyrane-3,5-diones,4-phenyl-thiopyrane-3,6-diones and cyclohexanetriones as novel herbicides” (Syngenta Crop Protection LLC, priority 2006, dated 2014).
# Tests used:
# Assay type in all cases: in vivo
# [1] = tested on: Alopecurus myosuroides (ALOMY); test: Example B pre-emergence herbicidal activity, glasshouse pot test; conditions: 312 h, rate 250 g/ha, evaluated after 13 days, read-out: Pre-emergence activity ALOMY (100=total damage to plant; 0=no damage to plant)
# Protocol: (§1) Seeds of a variety of test species were sown in standard soil in pots. After cultivation for one day (pre-emergence) or after 8 days cultivation (post-emergence) under controlled conditions in a glasshouse (at 24/16° C., day/night; 14 hours light; 65% humidity), the plants were sprayed with an aqueous spray solution derived from the formulation of the technical active ingredient in acetone/water (50:50) solution containing 0.5% Tween 20 (polyoxyethelyene sorbitan monolaurate, CAS RN 9005-64-5). The test plants were then grown in a glasshouse under controlled conditions in a glasshouse (at 24/16° C., day/night; 14 hours light; 65% humidity) and watered twice daily. After 13 days for pre and post-emergence, the test was evaluated (100=total damage to plant; 0=no damage to plant).
# (§2) Alopecurus myosuroides (ALOMY), Avena fatua (AVEFA), Setaria faberi (SETFA), Echinochloa crus-galli (ECHCG), Solanum nigrum (SOLNI) and Amaranthus retroflexus (AMARE)
# [2] = tested on: Amaranthus retroflexus (AMARE); test: as above; conditions: 312 h, rate 250 g/ha, evaluated after 13 days, read-out: Pre-emergence activity AMARE (100=total damage to plant; 0=no damage to plant)
# Protocol: as §1, §2
# [3] = tested on: Avena fatua (AVEFA); test: as above; conditions: 312 h, rate 250 g/ha, evaluated after 13 days, read-out: Pre-emergence activity AVEFA (100=total damage to plant; 0=no damage to plant)
# Protocol: as §1, §2
# [4] = tested on: Echinochloa crus-galli (ECHCG); test: as above; conditions: 312 h, rate 250 g/ha, evaluated after 13 days, read-out: Pre-emergence activity ECHCG (100=total damage to plant; 0=no damage to plant)
# Protocol: as §1, §2
# [5] = tested on: Setaria faberi (SETFA); test: as above; conditions: 312 h, rate 250 g/ha, evaluated after 13 days, read-out: Pre-emergence activity SETFA (100=total damage to plant; 0=no damage to plant)
# Protocol: as §1, §2
# [6] = tested on: Alopecurus myosuroides (ALOMY); test: Example B post-emergence herbicidal activity, glasshouse pot test; conditions: 312 h, rate 250 g/ha, evaluated after 13 days, read-out: Post-emergence activity ALOMY (100=total damage to plant; 0=no damage to plant)
# Protocol: as §1, §2
# [7] = tested on: Amaranthus retroflexus (AMARE); test: as above; conditions: 312 h, rate 250 g/ha, evaluated after 13 days, read-out: Post-emergence activity AMARE (100=total damage to plant; 0=no damage to plant)
# Protocol: as §1, §2
# [8] = tested on: Avena fatua (AVEFA); test: as above; conditions: 312 h, rate 250 g/ha, evaluated after 13 days, read-out: Post-emergence activity AVEFA (100=total damage to plant; 0=no damage to plant)
# Protocol: as §1, §2
# [9] = tested on: Echinochloa crus-galli (ECHCG); test: as above; conditions: 312 h, rate 250 g/ha, evaluated after 13 days, read-out: Post-emergence activity ECHCG (100=total damage to plant; 0=no damage to plant)
# Protocol: as §1, §2
# [10] = tested on: Setaria faberi (SETFA); test: as above; conditions: 312 h, rate 250 g/ha, evaluated after 13 days, read-out: Post-emergence activity SETFA (100=total damage to plant; 0=no damage to plant)
# Protocol: as §1, §2
Compound,pest or weed control at 250 g/ha [1] [%],pest or weed control at 250 g/ha [2] [%],pest or weed control at 250 g/ha [3] [%],pest or weed control at 250 g/ha [4] [%],pest or weed control at 250 g/ha [5] [%],pest or weed control at 250 g/ha [6] [%],pest or weed control at 250 g/ha [7] [%],pest or weed control at 250 g/ha [8] [%],pest or weed control at 250 g/ha [9] [%],pest or weed control at 250 g/ha [10] [%]
CCc1ccc(-c2ccc(Cl)c(C(F)(F)F)c2)cc1C1=C(O)C(C)(C)OC(C)(C)C1=O [Compound A-67],40,0,0,60,90,80,100,80,100,30
CCc1ccc(-c2ccc(Cl)c(C#N)c2)cc1C1=C(O)C(C)(C)OC(C)(C)C1=O [Compound A-69],0,0,0,60,80,70,90,90,100,100
CCc1ccc(-c2ccc(Cl)cc2C(F)(F)F)cc1C1=C(O)C(C)(C)OC(C)(C)C1=O [Compound A-72],0,0,0,40,0,20,60,0,80,80
CCc1ccc(-c2cnc(Cl)cc2C)cc1C1=C(O)C(C)(C)OC(C)(C)C1=O [Compound A-73],0,0,0,10,20,20,0,0,90,90
CCc1ccc(-c2c(Cl)cc(Cl)cc2Cl)cc1C1=C(O)C(C)(C)OC(C)(C)C1=O [Compound A-74],20,10,0,80,50,0,70,0,90,90
CCc1ccc(-c2ccc(Cl)nc2Cl)cc1C1=C(O)C(C)(C)OC(C)(C)C1=O [Compound A-75],30,0,30,90,90,90,0,90,100,100
CCc1ccc(-c2ccc(Cl)nc2)cc1C1=C(O)C(C)(C)OC(C)(C)C1=O [Compound A-76],60,0,50,70,100,90,0,70,100,100
CCc1ccc(-c2ccc(Cl)nc2C)cc1C1=C(O)C(C)(C)OC(C)(C)C1=O [Compound A-77],10,0,0,0,20,70,0,60,100,90
